Drawing on patent US9878985B2, “Benzocyclobutane(thio) carboxamides” (BAYER CROPSCIENCE AKTIENGESELLSCHAFT, priority 2013, dated 2018), this text covers LogP for 29 compounds.

The structures appear in SMILES notation.

The first data set is described as follows: Log P by HPLC on reversed phase columns (EEC directive 79/831 Annex V.A8). The data set is classed as physicochemical. Conditions: Table 1; method [a]: LC-UV, acidic range, 0.1% formic acid in water and acetonitrile. Here is the method:
Measurement of Log P values was performed according to EEC directive 79/831 Annex V.A8 by HPLC (High Performance Liquid Chromatography) on reversed phase columns with the following method: • [^a] Log P value is determined by measurement of LC-UV, in an acidic range, with 0.1% formic acid in water and acetonitrile as eluent (linear gradient from 10% acetonitrile to 95% acetonitrile). Calibration was done with straight-chain alkan2-ones (with 3 to 16 carbon atoms) with known Log P values (measurement of Log P values using retention times with linear interpolation between successive alkanones). Lambda-max-values were determined using UV-spectra from 200 nm to 400 nm and the peak values of the chromatographic signals.
For the compound `Cn1cc(C(=O)Nc2cccc3c2CC3c2ccccc2)c(C(F)F)n1` (centres unmarked) [Example I-01], the LogP was 3.20^[a].

Turning to `Cn1nc(C(F)F)c(C(=O)Nc2cccc3c2CC32CCCC2)c1F` [Example I-02], the LogP was 3.90[a].

On to `Cn1cc(C(=O)Nc2cccc3c2CC32CCCC2)c(C(F)F)n1` [Example I-03], for which the LogP is 3.59^[a].

`CCC1(CC)Cc2c(NC(=O)c3c(C(F)F)nn(C)c3Cl)cccc21` [Example I-04]: the LogP is 4.36^[a].

Take `CCC1(C)Cc2c(NC(=O)c3cccnc3C(F)F)cccc21` (centres unmarked) [Example I-05]: the LogP was 3.31^[a].

With `CC(C)C1Cc2c(NC(=O)c3cccnc3C(F)F)cccc21` (centres unmarked) [Example I-06], the LogP is 3.39^[a].

In the case of `Cn1nc(C(F)F)c(C(=O)Nc2cccc3c2CC32CCCCC2)c1Cl` [Example I-07], the LogP was 4.56^[a].

Consider `Cn1cc(C(=O)Nc2cccc3c2CC32CCCCC2)c(C(F)F)n1` [Example I-08], for which the LogP was 3.94^[a].

As to `O=C(Nc1cccc2c1CC21CCCC1)c1cccnc1C(F)F` [Example I-09], the LogP was 3.46^[a].

As for `Cc1nn(C)c(F)c1C(=O)Nc1cccc2c1CC21CCCCC1` [Example I-10], the LogP is 3.87^[a].

`Cn1nc(C(F)F)c(C(=O)Nc2cccc3c2CC3c2ccccc2)c1Cl` (centres unmarked) [Example I-11]: the LogP is 3.71^[a].

In the case of `CCC1(C)Cc2c(NC(=O)c3c(C(F)F)nn(C)c3Cl)cccc21` (centres unmarked) [Example I-12], the LogP is 3.96^[a].

`CCC1(C)Cc2c(NC(=O)c3cn(C)nc3C(F)F)cccc21` (centres unmarked) [Example I-13]: the LogP is 3.44^[a].

`CCC1(CC)Cc2c(NC(=O)c3c(C(F)F)nn(C)c3F)cccc21` [Example I-14]: the LogP was 4.11^[a].

Consider `CC1Cc2c(NC(=O)c3c(C(F)F)nn(C)c3F)cccc21` (centres unmarked) [Example I-15], for which the LogP was 3.02^[a].

`CC(C)C1Cc2c(NC(=O)c3c(C(F)F)nn(C)c3Cl)cccc21` (centres unmarked) [Example I-16]: the LogP is 4.06^[a].

On to `O=C(Nc1cccc2c1CC21CCCCC1)c1cccnc1C(F)F` [Example I-17], for which the LogP is 3.80^[a].

Regarding `Cn1nc(C(F)F)c(C(=O)Nc2cccc3c2CC32CCCCC2)c1F` [Example I-18], the LogP is 4.31^[a].

Turning to `O=C(Nc1cccc2c1CC2c1ccccc1)c1cccnc1C(F)F` (centres unmarked) [Example I-19], the LogP was 3.06^[a].

Regarding `CC(C)C1Cc2c(NC(=O)c3cn(C)nc3C(F)F)cccc21` (centres unmarked) [Example I-20], the LogP was 3.50^[a].

Regarding `Cn1nc(C(F)F)c(C(=O)Nc2cccc3c2CC32CCCC2)c1Cl` [Example I-21], the LogP is 4.14^[a].

Staying with this data set, now noted: Table 2 (amines III-a); method [a]: LC-UV, acidic range, 0.1% formic acid in water and acetonitrile.
For the compound `Nc1cccc2c1CC21CCCC1` [III-a-1], the LogP was 2.03^[a].

For `CCC1(CC)Cc2c(N)cccc21` [III-a-2], the LogP was 2.32^[a].

On to `CC1Cc2c(N)cccc21` (centres unmarked) [III-a-3], for which the LogP was 0.87^[a].

On to `CC(C)C1Cc2c(N)cccc21` (centres unmarked) [III-a-4], for which the LogP was 1.90^[a].

Regarding `CC1(C)Cc2c(N)cccc21` [III-a-5], the LogP was 1.36^[a].

In the case of `CCC1(C)Cc2c(N)cccc21` (centres unmarked) [III-a-6], the LogP is 1.82^[a].

For the compound `Nc1cccc2c1CC21CCCCC1` [III-a-7], the LogP was 2.37^[a].

In the case of `Nc1cccc2c1CC2c1ccccc1` (centres unmarked) [III-a-8], the LogP was 2.20^[a].
